The text below walks through data of BindingDB's records for doi:10.1021/jm00403a001 (Smith Kline & French Laboratories, 1988).

SMILES strings stand for the structures.

For the experiment, the target named is Vasopressin V2 receptor (Canis familiaris). Put plainly: In vitro antagonist activity was measured by inhibition of vasopressin-stimulated adenylate cyclase in renal medullary preparation in dog.

`CCOc1ccc(C[C@H]2NC(=O)CC3(CCCCC3)CCC[C@@H](C(=O)N3CCC[C@H]3C(=O)N[C@@H](CCCN=C(N)N)C(N)=O)NC(=O)[C@H](CC(N)=O)NC(=O)[C@H](C(C)C)NC(=O)[C@H](Cc3ccccc3)NC2=O)cc1` [1-[13-Benzyl-19-carbamoylmethyl-10-(4-ethoxy-benzyl)-16-isopropyl-8,11,14,17,20-pentaoxo-9,12,15,18,21-pentaaza-spiro[5.19]pentacosane-22-carbonyl]-pyrrolidine-2-carboxylic acid (1-carbamoyl-4-guanidino-butyl)-amide] yielded a Ki of 1000 µM.
